In patent US11649245B2, “Cyclopropylamine compound as LSD1 inhibitor and use thereof” (HELIOEAST PHARMACEUTICAL CO., LTD., priority 2018, dated 2023):
pIC50: −log10 of the molar value. Structures can show the parent of a compound that is named as a salt.

What was measured:
human LSD1 = human LSD1 (Homo sapiens, UniProt O60341); test: In vitro enzyme activity screening against LSD1 (HRP/Amplex Red fluorescence coupling enzyme method); assay type: biochemical; conditions: human LSD1, histone H3K4me peptide substrate 20 μM
Protocol: The purpose of this test was to detect the in vitro inhibitory activity of the compounds against LSD1. The enzyme used in this test was human LSD1, the standard substrate was histone H3K4me peptide (20 μM), the fluorescence coupling enzyme method was used to determine the activity of the compound by combining horseradish peroxidase (HRP) and fluorescent reagent Amplex Red to detect the H2O2 generation as a result of the reaction of LSD1. Compounds were tested in 10-dose IC50 mode with a 3-fold serial dilution starting at 10 μM. The enzyme and […] to start the reaction. Fluorescence detector: Envision, excitation wavelength: Ex/Em=530/590 […]

NCI-H1417 cells = test: Antiproliferation activity on NCI-H1417 cells (CellTiter-Glo, 10 days); assay type: cell-based, human; conditions: incubated for 10 days
Protocol: Experimental purpose: to detect the antiproliferation activity of the compounds on NCI-H1417 cells.
Experimental materials: RPMI 1640 culture medium, fetal bovine serum, Promega CellTiter-Glo reagent. NCI-H1417 cell line purchased from ATCC. Envision multi-label reader (PerkinElmer).
Experimental method: the compounds were dissolved to 10 mM, then the compounds were diluted 5 times with DMSO in a compound plate, the compounds were diluted 3-fold with Bravo from a starting concentration of 2 mM to the 10th concentration, 250 nL of the solutions were transferred to the upper and lower duplicate wells on a blank 384 cell plate by Echo transfer plate, cell suspension of per well/1000 cells/50 μL was added to the transferred 250 nL DMSO/compound, the compounds were diluted 200-fold, i.e., the initial action concentration was 10 μM. The cell plate was placed in a carbon dioxide incubator and incubated for 10 days. 25 μL of Promega CellTiter-Glo reagent was added to each well on the cell plate and was shaken at room temperature for 10 minutes to stabilize the luminescence signal. Readings were performed by PerkinElmer Envision multi-label analyzer.
Data analysis: the equation (Max-Ratio)/(Max-Min)*100% was used to convert the original data into the inhibition rate, the value of IC50 can be obtained by curve fitting of four-parameters (the 205 mode in XLFITS, iDBS).

[1] = target: T1, hERG potassium ion channel (Homo sapiens, UniProt Q12809); test: Inhibition test for hERG potassium ion channel (automatic patch-clamp, CHO-hERG cells); assay type: cell-based; conditions: Qpatch, highest test concentration 40 μM
T1 construct: expressed in transfected cells; host or cells: CHO-hERG cells
T1 sequence (Q12809 whole entry): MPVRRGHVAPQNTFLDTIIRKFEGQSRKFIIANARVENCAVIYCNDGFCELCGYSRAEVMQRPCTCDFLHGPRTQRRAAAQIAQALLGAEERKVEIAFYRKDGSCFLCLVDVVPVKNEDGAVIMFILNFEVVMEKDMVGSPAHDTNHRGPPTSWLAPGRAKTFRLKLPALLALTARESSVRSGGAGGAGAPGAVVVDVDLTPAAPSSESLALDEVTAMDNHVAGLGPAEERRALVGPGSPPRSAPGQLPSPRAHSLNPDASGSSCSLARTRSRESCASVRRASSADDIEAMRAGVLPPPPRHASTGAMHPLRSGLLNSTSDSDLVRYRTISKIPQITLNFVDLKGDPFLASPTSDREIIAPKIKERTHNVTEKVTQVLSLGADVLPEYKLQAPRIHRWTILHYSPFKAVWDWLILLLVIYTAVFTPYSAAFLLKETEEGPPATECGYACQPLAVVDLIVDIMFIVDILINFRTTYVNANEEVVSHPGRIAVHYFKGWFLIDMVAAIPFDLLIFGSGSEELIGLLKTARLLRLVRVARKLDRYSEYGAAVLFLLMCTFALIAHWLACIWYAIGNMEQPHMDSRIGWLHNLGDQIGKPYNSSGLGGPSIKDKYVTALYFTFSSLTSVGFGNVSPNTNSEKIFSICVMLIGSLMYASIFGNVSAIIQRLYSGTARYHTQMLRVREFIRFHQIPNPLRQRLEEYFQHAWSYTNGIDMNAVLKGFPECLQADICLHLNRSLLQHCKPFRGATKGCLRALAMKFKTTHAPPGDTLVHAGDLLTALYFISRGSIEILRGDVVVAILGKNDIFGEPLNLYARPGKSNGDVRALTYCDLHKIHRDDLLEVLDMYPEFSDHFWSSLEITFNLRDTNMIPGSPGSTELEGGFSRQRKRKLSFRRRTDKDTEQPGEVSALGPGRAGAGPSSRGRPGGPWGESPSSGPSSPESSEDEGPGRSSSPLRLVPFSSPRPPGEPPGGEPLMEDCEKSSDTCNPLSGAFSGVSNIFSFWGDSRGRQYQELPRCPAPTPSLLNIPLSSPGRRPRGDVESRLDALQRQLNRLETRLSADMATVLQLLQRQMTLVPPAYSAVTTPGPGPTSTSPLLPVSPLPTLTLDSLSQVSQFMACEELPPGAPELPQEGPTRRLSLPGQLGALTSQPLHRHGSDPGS
Protocol: Experimental purpose: to detect the effect of the embodiments to be tested on the potassium ion channel of hERG by using the fully automatic patch-clamp method.
6.1.1 CHO-hERG cells were cultured in a 175 cm^2 culture flask, after the cell density was increased to 60-80%, the culture medium was removed, the cells were washed once with 7 mL PBS (Phosphate Buffered Saline), and then 3 mL digestive fluid was added for digestion.
6.1.2 After the digestion was complete, 7 mL of culture medium was added for neutralization, then the mixture was centrifuged, the supernatant was aspirated, and then 5 mL of culture medium was added for resuspention to ensure that the cell density was 2-5×10^6/mL.
The single-cell high-impedance sealing and the whole-cell mode formation process were all automatically completed by the Qpatch instrument of the Shanghai Institute of Materia Medica, Chinese Academy of Sciences. After the whole-cell recording mode was obtained, the cells were clamped at −80 millivolts. […] The data were recorded for 2 minutes, then extracellular fluid was administrated, and then the data were recorded for 5 minutes. […]
The experimental data were analyzed by XLFit software.

[2] = test system: MC38 mouse colon cancer transplanted tumor model; test: In vivo pharmacodynamic study on MC38 mouse colon cancer transplanted tumor model; parameters: species or system C57BL/6 mice; conditions: compound 6 hydrochloride 1.5 mg/kg oral once a day, PD-1 mAb 5 mg/kg i.p. twice a week
Protocol: The purpose of this experiment was to evaluate the in vivo efficacy of the compounds of the present disclosure on MC38 mouse colon cancer transplanted tumor model.
Name: MC38 (Mouse Colon Cancer Cell)
Cell culture: 1640 medium containing 10% fetal bovine serum was used as culture medium, and the culture condition was 37° C., 5% carbon dioxide. The passage ratio was 1:2 to 1:3, the passage was performed 2-3 times per week.
0.1 mL (2×10^5 cells) of cells were subcutaneously inoculated into the right back of each mouse. On the same day, the animals were randomly grouped according to their body weight. […]
The experimental indicator is to investigate whether the tumor growth was inhibited, delayed or cured. Tumor diameters were measured with a vernier caliper twice a week. The tumor volume was calculated by the formula: V=0.5a×b^2, a and b respectively represent the long and short diameters of the tumor.
The efficacy of the compound was evaluated by relative tumor growth rate T/C (%). […] The relative tumor volume (RTV) was calculated based on the results of tumor measurement, the calculation formula was: RTV=Vt/V0, wherein V0 was the average tumor volume measured at the time of grouping administration (i.e., do), Vt is the average tumor volume measured at a single time, TRTV and CRTV were calculated from the data on the same day.

- pIC50 (human LSD1): 6.48
- pIC50 (NCI-H1417 cells): 8.04
SMILES: O=C(O)c1ccc(CN2CCC3(CC2)CC(N[C@@H]2C[C@H]2c2ccccc2)CO3)cc1 (some centres unmarked) [Hydrochloride of the compound 6]
- pIC50 [1]: < 4.40
- Tumor volume (28th day) ([2]; C57BL/6 mice, 28th day after administration): 1653 ± 893 mm^3
- T/C ([2]; relative tumor growth rate, 28th day): 92%
